{"source": "patent US20060111343A1", "about": "“Oxcarbazepine dosage forms” (Glenmark Pharmaceuticals Limited, priority 2004, published 2006)", "origin": "cited, not measured here", "data": [{"compound": "NC(=O)N1c2ccccc2CC(=O)c2ccccc21", "note": "[Oxcarbazepine, 10,11-dihydro-10-oxo-5H-dibenzo[b,]azepine-5-carboxamide]", "values": [{"measurement": "solubility in water", "value": "poor solubility in water"}]}]}
